Experimental data as given in patent publication US20090270435A1 (priority 2006, published 2009).
Structures can show the parent of a compound that is named as a salt.

Target: T1, ACC1 from rat liver (Rattus norvegicus, UniProt P11497)
T1 construct: The livers (for ACC1 preparation) or skeletal muscle tissue (for ACC2 preparation) are removed; from tissue; host or cells: liver of male CD rats (fasted, then fed a high sucrose diet)
Assay: Direct inhibition of ACC1 activity (14C-bicarbonate incorporation)
Assay type: biochemical
Conditions: ACC1 from rat liver
In short: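 ACC1 partially purified from livers of fasted/sucrose-refed male rats by PEG and ammonium sulfate fractionation, then preincubated 30 min at 37°C with 10 mM citrate and 1.0 mM MgCl2. Reaction ran 7 min at 37°C, stopped with HCl; acid-stable radioactivity counted by scintillation; HCl-first tubes served as blanks.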

Row | Structure (SMILES) | IC50 [µM]
1 | Cc1cc(C(=O)N2CCC3(CC2)CC(=O)c2c(Cl)cc(Cl)cc2O3)cc2cn[nH]c12 [Ex. A30, 5,7-dichloro-1′-[(7-methyl-1H-indazol-5-yl)carbonyl]spiro[chromene-2,4′-piperidin]-4(3H)-one] | 0.209
2 | Cc1cc2c(cc1Cl)C(=O)CC1(CCN(C(=O)c3cccc4[nH]ncc34)CC1)O2 [Ex. J2, 6-chloro-1′-(1H-indazol-4-ylcarbonyl)-7-methylspiro[chromene-2,4′-piperidin]-4(3H)-one] | 0.375
3 | Cc1cc2c(c(C)c1Cl)C(=O)CC1(CCN(C(=O)c3cccc4cn[nH]c34)CC1)O2 [Ex. H8, 6-chloro-1′-(1H-indazol-7-ylcarbonyl)-5,7-dimethylspiro[chromene-2,4′-piperidin]-4(3H)-one] | 0.59
4 | Cc1n[nH]c2cc(C(=O)N3CCC4(CC3)CC(=O)c3cc(C(=O)O)ccc3O4)ccc12 [Ex. F5, 1′-[(3-methyl-1H-indazol-6-yl)carbonyl]-4-oxo-3,4-dihydrospiro[chromene-2,4′-piperidine]-6-carboxylic acid trifluoroacetic acid salt] | 0.586
5 | Cc1cc(C(=O)N2CCC3(CC2)CC(=O)c2ccc(Cl)cc2O3)cc2cn[nH]c12 [Ex. A17, 7-chloro-1′-[(7-methyl-1H-indazol-5-yl)carbonyl]spiro[chromene-2,4′-piperidin]-4(3H)-one] | 0.0705
6 | COc1ccc2c(c1)OC1(CCN(C(=O)c3cc(Cl)c4[nH]ncc4c3)CC1)CC2=O [Ex. B7, 1′-[(7-chloro-1H-indazol-5-yl)carbonyl]-7-methoxyspiro[chromene-2,4′-piperidin]-4(3H)-one] | 0.166
7 | Cc1cc2c(cc1Cl)C(=O)CC1(CCN(C(=O)c3cccc4[nH]cnc34)CC1)O2 [Ex. L18, 1′-(1H-benzimidazol-4-ylcarbonyl)-6-chloro-7-methylspiro[chromene-2,4′-piperidin]-4(3H)-one] | 2.01
8 | O=C1CC2(CCN(C(=O)c3cccc4cn[nH]c34)CC2)Oc2cc(F)ccc21 [Ex. H19, 7-fluoro-1′-(1H-indazol-7-ylcarbonyl)spiro[chromene-2,4′-piperidin]-4(3H)-one] | 2.35
9 | Cc1cc2c(cc1C)C(=O)CC1(CCN(C(=O)c3ccc4c(c3)CC(=O)N4)CC1)O2 [Ex. L13, 6,7-dimethyl-1′-[(2-oxo-2,3-dihydro-1H-indol-5-yl)carbonyl]spiro[chromene-2,4′-piperidin]-4(3H)-one] | < 3
10 | COc1ccc2c(c1F)C(=O)CC1(CCN(C(=O)c3cccc4cn[nH]c34)CC1)O2 [Ex. H6, 5-fluoro-1′-(1H-indazol-7-ylcarbonyl)-6-methoxyspiro[chromene-2,4′-piperidin]-4(3H)-one] | 0.381

More lines, now with the values ahead:

Row | IC50 [µM] | Structure (SMILES)
11 | 0.613 | Cc1cc2c(cc1C)C(=O)CC1(CCN(C(=O)c3ccc4[nH]c(C(F)(F)F)nc4c3)CC1)O2 [Ex. L25, 6,7-dimethyl-1′-{[2-(trifluoromethyl)-1H-benzimidazol-5-yl]carbonyl}spiro[chromene-2,4′-piperidin]-4(3H)-one trifluoroacetic acid salt]
12 | > 1 | O=C1CC2(CCN(C(=O)c3ccc4nc[nH]c4c3)CC2)Oc2ccc(Cl)cc21 [Ex. L34]

Same assay, conditions: Table of Examples M1-M36

Row | IC50 [µM] | Structure (SMILES)
13 | 0.118 | NC(=O)c1ccc2c(c1)C(=O)CC1(CCN(C(=O)c3cccc(-c4cc[nH]n4)c3)CC1)O2 [Ex. M5, 4-oxo-1′-[3-(1H-pyrazol-3-yl)benzoyl]-3,4-dihydrospiro[chromene-2,4′-piperidine]-6-carboxamide]
14 | 0.223 | COc1ccc2c(c1F)C(=O)CC1(CCN(C(=O)c3cccc(-c4cc[nH]n4)c3)CC1)O2 [Ex. M14, 5-fluoro-6-methoxy-1′-[3-(1H-pyrazol-3-yl)benzoyl]spiro[chromene-2,4′-piperidin]-4(3H)-one]

Same assay, conditions: Table of Examples O1-O4

Row | IC50 [µM] | Structure (SMILES)
15 | 0.916 | O=C1CC2(CCN(C(=O)c3cccc(-c4ccn[nH]4)c3)CC2)Oc2ccccc21 [Ex. O1, 1′-[3-(1H-pyrazol-5-yl)benzoyl]spiro[chromene-2,4′-piperidin]-4(3H)-one]
